Assay results published in US11453847B2, “Laundry sheet” (priority 2018, dated 2022).

Columns and labels:
[1] = tested on: Water flea; conditions: in vivo
Protocol: (§1) (4) An ecotoxicity test was performed on various alkyl polyglucosides.

[2] = tested on: Algal; conditions: in vivo
Protocol: as §1

Row | Substance | Water flea test EC50 (49 h) [1] [µg/mL] | Algal test EC50 (72 h) [2] [µg/mL]
1 | alkyl ethoxylate [AEO] | 1.9 | 1.2
2 | fatty acid methyl ester ethoxylate [FMEE] | 79.2 | >100
